The inhibition is the percentage by which the read-out fell short of the control. Read a low inhibition as a response near the control.

The assay concerns the target human Autotaxin protein (Homo sapiens, UniProt Q13822). As to the kind of experiment: Evaluation of inhibitory activity against human Autotaxin protein (18:1 LysoPC substrate, choline assay kit, absorbance 570 nm). Type of assay: biochemical. The following applies: compound at 500 nM, 2 hours at 37° C. As to the method: The solution of each synthesized compound (80 uM, 100% dimethyl sulfoxide) was sequentially diluted 5 times with dimethyl sulfoxide to prepare 6 concentrations. Each concentration of compound was diluted two-fold with 1× test buffer (50 mM Tris-Cl (pH 8.0), 5 mM KCl, 1 mM CaCl2), 1 mM MgCl2, 140 mM NaCl, deionized water, 1 mg/mL BSA), and 1 uL (1.25% dimethyl sulfoxide) of this diluted mixture was dispensed into each well of a 96 well clear round bottom plate. 9 uL of 1× test buffer were added to each well, followed by the addition of 20 uL of 240 nM human Autotaxin protein (buffer: 50 mM Tris-HCl, pH 8.0, with 150 mM sodium chloride and 20% glycerol). 10 uL of sonicated 360 uM 18:1 LysoPC (diluted with 1× test buffer) were added to each well. The reaction was performed for 2 hours in a shaking incubator at 37° C., and a secondary reaction mixture (choline assay kit, KA1662) (65 uL of 1× test buffer: 1 uL of choline oxidase: 1 uL of dye probe) was prepared. 60 uL of the secondary reaction mixture were added to the reaction plate and reacted on a shaker for 30 minutes. Using a SpectraMax iD3 microplate reader, the absorbance was measured at a wavelength of 570 nm. The percentage of inhibition activity (% inhibition) was calculated by the Formula: (1−Absorbancetestgroup/Absorbancecontrol group)×100.
Compound `c1cc2c(cc1CNc1ncc(-c3nnc(N4CCC(c5cnn[nH]5)CC4)o3)cn1)OCO2` [Example 55, 5-(5-(4-(1H-1,2,3-triazol-5-yl)piperidin-1-yl)-1,3,4-oxadiazol-2-yl)-N-(benzo[d][1,3]dioxol-5-ylmethyl)pyrimidin-2-amine] yielded an inhibition at 0.5 µM of 52%.

Compound `Clc1ccc(CNc2ncc(-c3nnc(N4CCC(c5cnn[nH]5)CC4)o3)cn2)cc1Cl` [Example 56, 5-(5-(4-(1H-1,2,3-triazol-5-yl)piperidin-1-yl)-1,3,4-oxadiazol-2-yl)-N-(3,4-dichlorobenzyl)pyrimidin-2-amine] yielded an inhibition at 0.5 µM of 55.8%.

Turning to `Fc1cc(F)cc(CNc2ncc(-c3nnc(N4CCC(c5cnn[nH]5)CC4)o3)cn2)c1` [Example 57, 5-(5-(4-(1H-1,2,3-triazol-5-yl)piperidin-1-yl)-1,3,4-oxadiazol-2-yl)-N-(3,5-difluorobenzyl)pyrimidin-2-amine], testing at 0.5 µM gave an inhibition of 88.1%.

For the compound `Fc1ccc(CNc2ncc(-c3nnc(N4CCC(c5cnn[nH]5)CC4)o3)cn2)cc1F` [Example 58, 5-(5-(4-(1H-1,2,3-triazol-5-yl)piperidin-1-yl)-1,3,4-oxadiazol-2-yl)-N-(3,4-difluorobenzyl)pyrimidin-2-amine], at 0.5 µM the inhibition was 84%.

As to `Brc1cc(Br)cc(CNc2ncc(-c3nnc(N4CCC(c5cnn[nH]5)CC4)o3)cn2)c1` [Example 59, 5-(5-(4-(1H-1,2,3-triazol-5-yl)piperidin-1-yl)-1,3,4-oxadiazol-2-yl)-N-(3,5-dibromobenzyl)pyrimidin-2-amine], the inhibition at 0.5 µM was 98.5%.

For the compound `Cc1nc(NC2Cc3ccc(Br)cc3C2)ncc1-c1nnc(N2CCC(c3cnn[nH]3)CC2)o1` (stereo not drawn) [Example 60, 5-(5-(4-(1H-1,2,3-triazol-5-yl)piperidin-1-yl)-1,3,4-oxadiazol-2-yl)-N-(5-bromo-2,3-dihydro-1H-inden-2-yl)-4-methylpyrimidin-2-amine], at 0.5 µM the inhibition was 95.3%.

In turn, `Cc1nc(NC2Cc3cc(Br)c(Br)cc3C2)ncc1-c1nnc(N2CCC(c3cnn[nH]3)CC2)o1` [Example 61, 5-(5-(4-(1H-1,2,3-triazol-5-yl)piperidin-1-yl)-1,3,4-oxadiazol-2-yl)-N-(5,6-dibromo-2,3-dihydro-1H-inden-2-yl)-4-methylpyrimidin-2-amine] yielded an inhibition at 0.5 µM of 70%.

`c1ccc2c(c1)CC(Nc1ncc(CCCN3CCC(c4c[nH]nn4)CC3)cn1)C2` [Example 62, 5-(3-(4-(1H-1,2,3-triazol-4-yl)piperidin-1-yl)propyl)-N-(2,3-dihydro-1H-inden-2-yl)pyrimidin-2-amine]: at 0.5 µM the inhibition was 70.2%.

With `Fc1cc2c(cc1F)CC(Nc1ncc(-c3nnc(N4CCC(N5CCOCC5)CC4)o3)cn1)C2` [Example 63, N-(5,6-difluoro-2,3-dihydro-1H-inden-2-yl)-5-(5-(4-morpholinopiperidin-1-yl)-1,3,4-oxadiazol-2-yl)pyrimidin-2-amine], the inhibition at 0.5 µM came out at 42.9%.

As to `OC1CN(C2CCN(c3nnc(-c4cnc(NC5Cc6cc(F)c(F)cc6C5)nc4)o3)CC2)C1` [Example 64, 1-(1-(5-(2-((5,6-Difluoro-2,3-dihydro-1H-inden-2-yl)amino)pyrimidin-5-yl)-1,3,4-oxadiazol-2-yl)piperidin-4-yl)azetidin-3-ol], at 0.5 µM the inhibition was 28.1%.

With `NS(=O)(=O)C1CCN(c2nnc(-c3cnc(NC4Cc5cc(F)c(F)cc5C4)nc3)o2)CC1` [Example 65, 1-(5-(2-((5,6-Difluoro-2,3-dihydro-1H-inden-2-yl)amino)pyrimidin-5-yl)-1,3,4-oxadiazol-2-yl)piperidine-4-sulfonamide], 0.5 µM produced 58% inhibition.

Turning to `O=c1[nH]nc(C2CCN(c3nnc(-c4cnc(NC5Cc6cc(F)c(F)cc6C5)nc4)o3)CC2)o1` [Example 66, 5-(1-(5-(2-((5,6-Difluoro-2,3-dihydro-1H-inden-2-yl)amino)pyrimidin-5-yl)-1,3,4-oxadiazol-2-yl)piperidin-4-yl)-1,3,4-oxadiazol-2(3H)-one], the inhibition at 0.5 µM was 86.8%.

The values above are taken from US12145929B2, “Piperidine derivative and pharmaceutical composition for inhibiting autotaxin comprising same” (NEXTGEN BIOSCIENCE CO., LTD., priority 2021, dated 2024).
